From US5432194A, “(4-alkoxypyran-4-yl) substituted arylalkylaryl-, aryalkenylaryl-, and aryalkynylarylurea inhibitors of 5-lipoxygenase” (Abbott Laboratories, priority 1994, dated 1995)
Where a name gives a salt, the structure may show the parent alone.

Molecular target: T1, 5-Lipoxygenase (Homo sapiens, UniProt P09917)
T1 construct: from tissue; host or cells: human heparinized whole blood
T1 sequence (P09917 1-674): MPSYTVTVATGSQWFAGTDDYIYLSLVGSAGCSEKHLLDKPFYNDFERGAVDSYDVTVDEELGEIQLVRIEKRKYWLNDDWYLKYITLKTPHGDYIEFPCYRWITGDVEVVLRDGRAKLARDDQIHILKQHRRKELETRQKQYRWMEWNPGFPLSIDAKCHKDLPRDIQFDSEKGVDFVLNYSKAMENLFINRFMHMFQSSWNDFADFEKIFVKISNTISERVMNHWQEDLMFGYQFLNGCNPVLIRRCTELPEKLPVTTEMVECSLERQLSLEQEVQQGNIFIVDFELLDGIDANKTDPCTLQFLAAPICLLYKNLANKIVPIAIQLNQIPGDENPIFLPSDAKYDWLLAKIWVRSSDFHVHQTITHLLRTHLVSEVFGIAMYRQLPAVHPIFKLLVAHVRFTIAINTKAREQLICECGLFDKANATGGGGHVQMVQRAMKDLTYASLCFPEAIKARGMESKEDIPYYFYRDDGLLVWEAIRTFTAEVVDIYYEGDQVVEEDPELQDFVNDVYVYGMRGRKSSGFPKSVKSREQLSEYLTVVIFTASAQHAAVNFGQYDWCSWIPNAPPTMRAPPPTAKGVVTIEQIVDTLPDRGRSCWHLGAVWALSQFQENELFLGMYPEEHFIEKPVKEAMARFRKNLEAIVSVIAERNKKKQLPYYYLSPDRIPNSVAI
Experiment: Inhibition of calcium ionophore-induced LTB4 biosynthesis in human whole blood (5-lipoxygenase)
Format: cell-based
Conditions: for IC50: calcium ionophore A23187 8.3 μM, 15 min preincubation, 37° C., read-out: IC50 against 5-lipoxygenase from stimulated LTB4 formation in human whole blood; for inhibition at 0.1 µM: @ 0.10 μM
Protocol: Inhibition of leukotriene biosynthesis was evaluated in an assay, involving calcium ionophore-induced LTB4 biosynthesis expressed human whole blood. Human heparinized whole blood was preincubated with test compounds or vehicle for 15 min at 37° C. followed by calcium ionophore A23187 challenge (final concentration of 8.3 μM) and the reaction terminated after 30 min by adding two volumes of methanol containing prostaglandin B2 as an internal recovery standard. The methanol extract was analyzed for LTB4 using a commercially available radioimmunoassay.

[1] = A23187, read-out: Inhibition of stimulated LTB4 formation in human whole blood

Row | SMILES | IC50 [nM] | further results
1 | C=CCN(C)C(=O)N(C)c1ccc(Sc2cccc(C3(OC)CCOCC3)c2)cc1 [Example 35, 4-{3-[4-(((N'-allyl-N'-methylamino)carbonyl)-N-methylamino)phenyl-thio]phenyl}-4-methoxytetrahydropyran] | 30 | 
2 | COC1(c2cccc([S+]([O-])c3ccc(N(C)C(=O)N(C)C)cc3)c2)CCOCC1 (stereo not shown) [Example 9, 4-{3-[4-((N',N'-dimethylaminocarbonyl)-N-methylamino)phenylsulfinyl]phenyl}-4-methoxytetrahydropyran] |  | inhibition at 0.1 µM [1]: 25%
3 | COC1(c2cc(F)cc(OCc3ccc(N(C)C(=O)N(C)C)cc3)c2)CCOCC1 [Example 1, 4-{3-[4-((N',N'-dimethylaminocarbonyl)-N-methylamino)benzyloxy]-5-fluorophenyl}-4-methoxytetrahydropyran] | 17 | 
4 | CNC(=O)N(C)c1ccc(Sc2cccc(C3(OC)CCOCC3)c2)cc1 [Example 28, 4-{3-[4-((N"-methylaminocarbonyl)-N-methylamino)phenylthio]phenyl}-4-methoxytetrahydropyran] |  | inhibition at 0.78 µM (@ 0.78 μM, A23187, read-out: Inhibition of stimulated LTB4 formation in human whole blood): 100%
5 | COC1(c2cc(F)cc(OCc3ccc(CNC(=O)N(C)C)cc3)c2)CCOCC1 [Example 11, 4-{3-[4-((N',N'-dimethylaminocarbonyl)aminomethyl)benzyloxy]-5-fluorophenyl}-4-methoxytetrahydropyran] | 1800 | 
6 | COC1(c2cccc(Sc3ccc(N(C)C(=O)N(C)C)cc3)c2)CCOCC1 [Example 8, 4-{3-[4-((N',N'-dimethylaminocarbonyl)-N-methylamino)phenylthio]phenyl}-4-methoxytetrahydropyran] |  | inhibition at 0.025 µM (@ 0.025 μM, A23187, read-out: Inhibition of stimulated LTB4 formation in human whole blood): 45%
7 | COC1(c2cc(F)cc(OCc3ccc(CN4CCNC4=O)cc3)c2)CCOCC1 [Example 17, 4-{3-[4-(imidazolidin-2-on-1-ylmethyl)benzyloxy]-5-fluorophenyl}-4-methoxytetrahydropyran] |  | inhibition at 200 µM (@ 200 μM, A23187, read-out: Inhibition of stimulated LTB4 formation in human whole blood): 13%
8 | COC1(c2cccc(Sc3ccc(N(C)C(=O)N4CCOCC4)cc3)c2)CCOCC1 [Example 29, 4-{3-[4-((4-morpholinocarbonyl)-N-methylamino)phenylthio]phenyl}-4-methoxytetrahydropyran] |  | inhibition at 0.1 µM [1]: 94%

Now from value to compound, other results behind:

Row | IC50 [nM] | SMILES | further results
9 | 70 | COC1(c2cccc(Sc3ccc(N(C)C(=O)N4CCN(C)CC4)cc3)c2)CCOCC1 [Example 31, 4-{3-[4-(((4-methylpiperazinyl)carbonyl)-N-methylamino)phenylthio]phenyl}-4-methoxytetrahydropyran] | 
10 | 80 | COC1(c2cccc(Sc3ccc(N(C)C(=O)N4CCN(C)CC4)cc3)c2)CCOCC1 [Example 33, 4-{3-[4-(((4-methylpiperazinyl)carbonyl)-N-methylamino)phenylthio]phenyl}-4-methoxytetrahydropyran hydrochloride salt] | 
